Key:
Histone deacetylase 8 = target: T1, Histone deacetylase 8 (Schistosoma mansoni, UniProt A5H660); test: Inhibition of Schistosoma mansoni KDAC8 using (FAM)-labeled peptide as substrate after 60 mins by microfluidic assay; details: read-out: IC50
T1 sequence (A5H660 whole entry): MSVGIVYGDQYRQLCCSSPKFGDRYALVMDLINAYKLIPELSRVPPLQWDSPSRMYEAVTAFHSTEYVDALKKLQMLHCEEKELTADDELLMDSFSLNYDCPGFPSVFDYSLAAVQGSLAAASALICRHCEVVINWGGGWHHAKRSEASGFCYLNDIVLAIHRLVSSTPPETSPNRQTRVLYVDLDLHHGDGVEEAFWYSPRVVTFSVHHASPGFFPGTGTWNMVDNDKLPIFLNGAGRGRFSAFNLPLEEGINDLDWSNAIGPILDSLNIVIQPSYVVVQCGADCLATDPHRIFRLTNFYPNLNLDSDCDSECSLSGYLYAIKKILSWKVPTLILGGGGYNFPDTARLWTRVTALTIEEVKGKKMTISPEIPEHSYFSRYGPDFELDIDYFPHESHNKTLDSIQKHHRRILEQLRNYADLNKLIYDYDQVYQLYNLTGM

[1] = target: T2, Histone deacetylase 8 (Schistosoma mansoni) (UniProt A5H660); test: Inhibition of Schistosoma mansoni KDAC8 at 30 uM using (FAM)-labeled peptide as substrate after 60 mins by microfluidic assay
T2 sequence (whole entry): T1 sequence (A5H660 whole entry)

Work on O=C(CCCCN1C(=O)[C@H](CO)N=C(c2ccccc2)c2ccccc21)NO yielded an IC50 (Histone deacetylase 8) of over 30 µM and an inhibition [1] of 0.46%.
With CSCC[C@@H]1N=C(c2ccccc2)c2ccccc2N(CCCCC(=O)O)C1=O the IC50 (Histone deacetylase 8) was over 30 µM and the inhibition [1] was 0%.
Work on N=C(N)NCCC[C@@H]1N=C(c2ccccc2)c2ccccc2N(CCCCC(=O)NO)C1=O yielded an IC50 (Histone deacetylase 8) of over 30 µM and an inhibition [1] of 23.5%.
With COC(=O)CCCCN1C(=O)[C@H](CCSC)N=C(c2ccccc2)c2ccccc21 the IC50 (Histone deacetylase 8) was over 30 µM and the inhibition [1] was 0%.
Work on CC(OCc1ccccc1)[C@@H]1N=C(c2ccccc2)c2ccccc2NC1=O (single isomer, unassigned) yielded an IC50 (Histone deacetylase 8) of over 30 µM and an inhibition [1] of 0%.
O=C(CCCCN1C(=O)[C@H](Cc2ccccc2)N=C(c2ccccc2)c2ccccc21)NO showed an IC50 (Histone deacetylase 8) of over 30 µM and an inhibition [1] of 14.4%.
With O=C(CCCNC(=O)CC[C@@H]1N=C(c2ccccc2)c2ccccc2NC1=O)NO the IC50 (Histone deacetylase 8) was 6.53 µM and the inhibition [1] was 81.7%.
With O=C(CCCCN1C(=O)[C@H](Cc2cncn2C(c2ccccc2)(c2ccccc2)c2ccccc2)N=C(c2ccccc2)c2ccccc21)NO the IC50 (Histone deacetylase 8) was over 30 µM and the inhibition [1] was 3.81%.
In the case of COC(=O)CCCCN1C(=O)[C@H](COC(C)(C)C)N=C(c2ccccc2)c2ccccc21, the IC50 (Histone deacetylase 8) is reported as over 30 µM and the inhibition [1] is reported as 0%.
COC(=O)CCCCN1C(=O)[C@H](C(C)C)N=C(c2ccccc2)c2ccccc21 gave an IC50 (Histone deacetylase 8) of over 30 µM and an inhibition [1] of 0%.
With O=C(O)C[C@H]1N=C(c2ccccc2)c2ccccc2NC1=O the IC50 (Histone deacetylase 8) was over 30 µM and the inhibition [1] was 0%.
CC(C)[C@@H]1NC(=O)[C@H]2CCCN2C(=O)[C@@H]2CCCN2C(=O)C[C@@H](C(=O)NCCCC(=O)NO)NC1=O gave an IC50 (Histone deacetylase 8) of over 30 µM and an inhibition [1] of 21 to 31.9%.
For O=C(CC[C@H]1N=C(c2ccccc2)c2ccccc2NC1=O)NO, the IC50 (Histone deacetylase 8) was over 30 µM and the inhibition [1] was 24%.
For CC(C)(C)Oc1ccc(C[C@@H]2N=C(c3ccccc3)c3ccccc3NC2=O)cc1, the IC50 (Histone deacetylase 8) was over 30 µM and the inhibition [1] was 0%.
CC(C)(C)SC[C@H]1N=C(c2ccccc2)c2ccccc2N(CCCCC(=O)NO)C1=O gave an IC50 (Histone deacetylase 8) of over 30 µM and an inhibition [1] of 18.5%.
CC(C)[C@@H]1N=C(c2ccccc2)c2ccccc2N(CCCCC(=O)NO)C1=O showed an IC50 (Histone deacetylase 8) of over 30 µM and an inhibition [1] of 20.6%.
With O=C(O)CC[C@@H]1N=C(c2ccccc2)c2ccccc2NC1=O the IC50 (Histone deacetylase 8) was over 30 µM and the inhibition [1] was 0%.
Compound C[C@@H]1N=C(c2ccccc2)c2ccccc2N(CCCCC(=O)O)C1=O has an IC50 (Histone deacetylase 8) of over 30 µM and an inhibition [1] of 0%.
With CC(C)(C)OC(=O)C[C@@H]1N=C(c2ccccc2)c2ccccc2N(CCCCC(=O)NO)C1=O the IC50 (Histone deacetylase 8) was over 30 µM and the inhibition [1] was 38.8%.
With CC(C)(C)Oc1ccc(C[C@@H]2N=C(c3ccccc3)c3ccccc3N(CCCCC(=O)O)C2=O)cc1 the IC50 (Histone deacetylase 8) was over 30 µM and the inhibition [1] was 0%.
In the case of COC(=O)CCCCN1C(=O)[C@H](CCC(=O)NC(c2ccccc2)(c2ccccc2)c2ccccc2)N=C(c2ccccc2)c2ccccc21, the IC50 (Histone deacetylase 8) is reported as over 30 µM and the inhibition [1] is reported as 0%.
O=C(CCCCN1C(=O)[C@@H](CS)N=C(c2ccccc2)c2ccccc21)NO gave an IC50 (Histone deacetylase 8) of 20.9 µM and an inhibition [1] of 57%.
Compound CC[C@H](C)[C@@H]1N=C(c2ccccc2)c2ccccc2NC1=O has an IC50 (Histone deacetylase 8) of over 30 µM and an inhibition [1] of 0%.
Work on O=C(O)C[C@@H]1N=C(c2ccccc2)c2ccccc2N(CCCCC(=O)NO)C1=O yielded an IC50 (Histone deacetylase 8) of over 30 µM and an inhibition [1] of 12.4%.
CC(C)(C)OC[C@@H]1N=C(c2ccccc2)c2ccccc2NC1=O showed an IC50 (Histone deacetylase 8) of over 30 µM and an inhibition [1] of 0%.
With Cc1c(C)c(S(=O)(=O)NC(=N)NCCC[C@@H]2N=C(c3ccccc3)c3ccccc3NC2=O)c(C)c2c1OC(C)(C)C2 the IC50 (Histone deacetylase 8) was over 30 µM and the inhibition [1] was 0%.
With CC(C)(C)OC(=O)NCCCC[C@@H]1N=C(c2ccccc2)c2ccccc2NC1=O the IC50 (Histone deacetylase 8) was over 30 µM and the inhibition [1] was 0%.

Reference: ChEMBL document CHEMBL4014283, “Structural insights of SmKDAC8 inhibitors: Targeting Schistosoma epigenetics through a combined structure-based 3D QSAR, in vitro and synthesis strategy” (Bioorg Med Chem, 2017)
